{"source": "patent US11266715B2", "about": "“C3A receptor agonists for use against ischemic brain injury, stroke, traumatic brain injury, spinal cord injury and neurodegenerative disorders” (priority 2016, dated 2022)", "test_system": "VGLUT1+ puncta", "assay": "VGLUT1 immunostaining of cortex 21 days after stroke", "type": "in vivo, mouse", "conditions": "ipsilesional cortex, in particular deep cortical layers", "experimental": "For immunofluorescent evaluation, sections were deparaffinized, heated three times for 5 min in a microwave oven in 0.01 M citric buffer (pH 6.0), and blocked in PBS containing 0.05% Tween-20 (Sigma) and 1% in Bovine serum albumin (BSA, Sigma) for GAP-43 and synapsin I staining, 3% normal goat serum for VGLUT1 staining or 4% normal donkey serum for GAP-43 double stainings. Goat anti-synapsin la/b antibody (1:150; Santa Cruz, sc-7379) was followed by biotin-conjugated donkey anti-goat immunoglobulin (Ig) secondary antibody (1:200; Jackson Research Lab, 705-065-147) and Cy3-conjugated streptavidin (1:100; Sigma). Guinea pig anti-VGLUT1 (1:500; Millipore, AB5905) was followed by Alexa Fluor 488 goat anti-guinea pig Ig (1:500; Molecular Probes, A11073). […]\nHighest signal intensity single plane images of immunostained sections were obtained by laser scanning confocal microscope (LSM TCS SP2, Leica Microsystems, ×63/NA 1.3 objective for synapsin I and GAP-43; and LSM 700, Carl Zeiss for VGLUT1 ×40/NA 1.3) at 1024×1024 pixels resolution. […] Three standard sections per animal in 160 μm intervals were analysed. […]\nSingle-stained images were analysed using MetaMorph® software (Molecular Devices, ver. 2.8.5) to obtain number, average size and intensity of positive punctuate structures per image. […] An experimenter blinded to experimental group performed all image acquisitions and quantifications."}
{"substance": "C3a: Purified human C3a peptide (Complement Technologies), C3a receptor agonist, amino acid sequence SEQ ID NO: 1", "values": [{"measurement": "density and size of VGLUT1+ puncta", "result": "higher density and size"}]}
